From ChEMBL document CHEMBL1127955, “Enantioselective synthesis of the optical isomers of broad-spectrum orally active antifungal azoles, Sch 42538 and Sch 45012” (1994)
Where “and” joins values, the source holds several entries; their conditions need not be identical. Equal values may be shown once.

Columns and labels:
Type in all cases: functional
Mus musculus [1] = experiment: Compound was tested for the colony forming units of C. Albicans in mice at a dose of 50 mg/kg expressed as geometric mean
Mus musculus [2] = organism: Mus musculus; experiment: Compound was tested for the oral activity in CF-1 mice infected with C. Albicans in eagles essential medium at pH 7.0 duration of 48 h; design: unit not given here
Mus musculus [3] = organism: Mus musculus; experiment: Compound was tested for the oral activity in CF-1 mice infected with Aspergillus flavus by sabouraud dextrose broth of pH 5.7 duration of 72 h; design: unit not given here
Mus musculus [4] = experiment: Compound was tested for the oral activity in CF-1 mice infected with Aspergillus flavus at a dose of 100 mg/kg of 4 days post infection; conditions: for survival at 100 mg/kg: Mus musculus, po, 96 h; for Survival: 100 mg/kg
Mus musculus [5] = experiment: Compound was tested for the oral activity in CF-1 mice infected with C. Albicans at a dose of 50 mg/kg of 4 days post infection; conditions: for Survival: 50 mg/kg; for survival at 50 mg/kg: Mus musculus, po, 96 h
Mus musculus [6] = experiment: Compound was tested for the colony forming units of C. Albicans in mice at a dose of 25 mg/kg expressed as geometric mean
Mus musculus [7] = experiment: Compound was tested for the oral activity in CF-1 mice infected with Aspergillus flavus at a dose of 66 mg/kg of 4 days post infection; conditions: for survival at 66 mg/kg: Mus musculus, po, 96 h; for Survival: 66 mg/kg
Mus musculus [8] = experiment: Compound was tested for the oral activity in CF-1 mice infected with C. Albicans at a dose of 25 mg/kg of 4 days post infection; conditions: for survival at 25 mg/kg: Mus musculus, po, 96 h; for Survival: 25 mg/kg
Mus musculus [9] = experiment: Compound was tested for the colony forming units of Aspergillus flavus in mice at a dose of 100 mg/kg expressed as geometric mean
Mus musculus [10] = experiment: Compound was tested for the colony forming units of Aspergillus flavus in mice at a dose of 66 mg/kg expressed as geometric mean
Mus musculus [11] = experiment: Compound was tested for the colony forming units of C. Albicans in mice at a dose of 10 mg/kg expressed as geometric mean
Mus musculus [12] = experiment: Compound was tested for the oral activity in CF-1 mice infected with C. Albicans at a dose of 10 mg/kg of 4 days post infection

SMILES | CFU (Mus musculus [1]; 50 mg/kg) | MIC (Mus musculus [2]) | MIC (Mus musculus [3]) | survival at 100 mg/kg (Mus musculus [4]) [%] | Survival (Mus musculus [5]) | CFU (Mus musculus [6]) | CFU (Mus musculus [1]) | survival at 66 mg/kg (Mus musculus [7]) [%] | survival at 25 mg/kg (Mus musculus [8]) [%] | survival at 50 mg/kg (Mus musculus [5]) [%] | CFU (Mus musculus [6]; 25 mg/kg) | Survival (Mus musculus [4]) [%] | Survival (Mus musculus [7]) [%] | Survival (Mus musculus [8]) [%] | CFU (Mus musculus [9]) | CFU (Mus musculus [10]) | CFU (Mus musculus [11]; 10 mg/kg) | Survival (Mus musculus [12]; 10 mg/kg) | CFU (Mus musculus [11]) | survival at 10 mg/kg (Mus musculus [12]; Mus musculus, po, 96 h) [%]
CCC(C)n1ncn(-c2ccc(N3CCN(c4ccc(OC[C@H]5CO[C@](Cn6cncn6)(c6ccc(F)cc6F)O5)cc4)CC3)cc2)c1=O (single isomer, unassigned) [SAPERCONAZOLE] | 8.2 and 9 | 0.0039 | 0.0313 | 0 | 20% and 0% | – | – | – | – | – | – | – | – | – | – | – | – | – | – | –
CC[C@H](C)n1ncn(-c2ccc(N3CCN(c4ccc(OC[C@@H]5COC(Cn6cncn6)(c6ccc(F)cc6F)C5)cc4)CC3)cc2)c1=O (single isomer, unassigned) [SCH-49999] | – | 0.0625 | >8 | 20 | – | 9 | 7.84 | 0 | 0 | 20 | – | – | – | – | – | – | – | – | – | –
CC[C@@H](C)n1ncn(-c2ccc(N3CCN(c4ccc(OC[C@@H]5COC(Cn6cncn6)(c6ccc(F)cc6F)C5)cc4)CC3)cc2)c1=O (single isomer, unassigned) | 9 | 0.0313 | >8 | – | 0% | – | – | – | – | – | 9 | 10 | 0 | 0 | – | – | – | – | – | –
CCC(C)n1ncn(-c2ccc(N3CCN(c4ccc(OC[C@@H]5COC(Cn6cncn6)(c6ccc(F)cc6F)C5)cc4)CC3)cc2)c1=O (single isomer, unassigned) | 4.99 | 0.0039 | 0.0625 | – | 100% | – | – | – | – | – | 5.14 | 100 | 50 | 100 | 1.95 | 2.25 | 7.42 and 5.92 | 40% and 90% | – | –
CCC(C)n1ncn(-c2ccc(N3CCN(c4ccc(OC[C@@H]5CO[C@@](Cn6cncn6)(c6ccc(Cl)cc6Cl)O5)cc4)CC3)cc2)c1=O (stereo partly drawn) [ITRACONAZOLE] | – | 0.0078 | 0.125 | 20 | – | 9 | 6.68 | 0 | 0 | 60 | – | – | – | – | – | – | – | – | 8.87 | 10
